Laboratory results reported in article PMC2099433, “The binding site for neohesperidin dihydrochalcone at the human sweet taste receptor” (BMC Structural Biology, 2007).

What was measured:
[1] = biological target: T1, rat Tas1r3 and human TAS1R2 (opposite combination) (Rattus norvegicus, UniProt Q923K1); test: Calcium response, opposite interspecies subunit combination; format: cell-based; conditions: 1 mM NHDC
T1 construct: expressed in transfected cells; host or cells: HEK293T cells stably expressing G16Gust44
From the text: (§1) In order to elucidate the putative binding site for NHDC, we cotransfected mixtures of plasmid DNAs for the rat and human TAS1R2 and TAS1R3 receptor subunits in HEK293T cells stably expressing the chimeric G-protein G16Gust44 and measured cellular calcium responses by fluorometry following bath application of various sweet tasting compounds.
Figure 1 Chemical structure and calcium responses elicited by neohesperidin dihydrochalcone. (A) Structure of neohesperidin dihydrochalcone. Numbers denote carbon atom positions. […]
(§2) The cDNAs for TAS1Rs tagged at the C-terminus with the herpes simplex virus glycoprotein D (HSV) were transiently transfected into HEK293T cells stably expressing the chimeric G-protein subunit G16Gust44 [44] using Lipofectamine 2000 (Invitrogen, Carlsbad, CA) according to the manufacturer's protocol. […] We monitored calcium mobilization following receptor stimulation with sweet tastants by an automated fluorometric imaging plate reader (FLIPR, Molecular Devices, Sunnyvale, CA). […] The obtained calcium signals were corrected for the response of mock transfected cells and normalized to the fluorescence of cells prior to the application of the stimulus using ΔF/F = (F-F0)/F0. Concentration-response curves and EC50 and IC50 values were calculated in SigmaPlot by nonlinear regression using the function f = ((a-d)/(1+(x/EC50)^nH)+d) and f = (a-b)/[1+(x/IC50)^nH]+b, respectively.

[2] = test system: receptors that contain the entire rat Tas1r3 or its heptahelical domain; test: Calcium response, receptors and chimeras with rat Tas1r3 heptahelical domain; format: cell-based, human; conditions: 1 mM NHDC
From the text: as §1, with “compounds. […].” for “compounds.”
Figure 1 Chemical structure and calcium responses elicited by neohesperidin dihydrochalcone. (A) Structure of neohesperidin dihydrochalcone. Numbers denote carbon atom positions. (B) Representative calcium traces elicited upon stimulation with different concentrations of neohesperidin dihydrochalcone (NHDC) in HEK293T-G16Gust44 cells cotransfected with DNA for hTAS1R2/hTAS1R3. […]
as §2, with “Concentration-response curves and EC50 and IC50 values were calculated in SigmaPlot by nonlinear regression using the function f = ((a-d)/(1+(x/EC50)^nH)+d) and f = (a-b)/[1+(x/IC50)^nH]+b, respectively.” left out

T1 sequence (Q923K1 21-858): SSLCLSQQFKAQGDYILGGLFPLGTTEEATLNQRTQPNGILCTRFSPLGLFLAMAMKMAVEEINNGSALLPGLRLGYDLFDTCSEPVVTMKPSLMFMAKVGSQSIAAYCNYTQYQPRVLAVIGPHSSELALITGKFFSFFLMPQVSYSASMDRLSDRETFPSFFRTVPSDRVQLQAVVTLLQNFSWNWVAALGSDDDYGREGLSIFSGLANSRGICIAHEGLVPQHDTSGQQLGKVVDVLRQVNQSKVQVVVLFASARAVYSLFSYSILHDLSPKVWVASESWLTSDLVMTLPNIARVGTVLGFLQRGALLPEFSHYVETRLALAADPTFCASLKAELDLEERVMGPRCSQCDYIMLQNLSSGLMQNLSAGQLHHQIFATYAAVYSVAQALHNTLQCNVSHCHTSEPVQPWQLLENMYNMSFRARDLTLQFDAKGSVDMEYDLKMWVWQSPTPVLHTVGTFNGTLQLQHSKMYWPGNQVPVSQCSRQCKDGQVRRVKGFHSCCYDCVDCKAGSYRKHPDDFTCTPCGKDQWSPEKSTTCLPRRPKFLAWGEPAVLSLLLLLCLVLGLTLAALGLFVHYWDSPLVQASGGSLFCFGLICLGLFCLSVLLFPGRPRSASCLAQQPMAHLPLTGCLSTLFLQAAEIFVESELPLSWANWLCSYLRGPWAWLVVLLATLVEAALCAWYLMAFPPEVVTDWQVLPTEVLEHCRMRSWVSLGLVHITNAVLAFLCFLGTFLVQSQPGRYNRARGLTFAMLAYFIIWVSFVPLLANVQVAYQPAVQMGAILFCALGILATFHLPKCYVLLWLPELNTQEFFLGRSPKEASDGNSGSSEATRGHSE
T1 sequence (Q8TE23 20-839 partner): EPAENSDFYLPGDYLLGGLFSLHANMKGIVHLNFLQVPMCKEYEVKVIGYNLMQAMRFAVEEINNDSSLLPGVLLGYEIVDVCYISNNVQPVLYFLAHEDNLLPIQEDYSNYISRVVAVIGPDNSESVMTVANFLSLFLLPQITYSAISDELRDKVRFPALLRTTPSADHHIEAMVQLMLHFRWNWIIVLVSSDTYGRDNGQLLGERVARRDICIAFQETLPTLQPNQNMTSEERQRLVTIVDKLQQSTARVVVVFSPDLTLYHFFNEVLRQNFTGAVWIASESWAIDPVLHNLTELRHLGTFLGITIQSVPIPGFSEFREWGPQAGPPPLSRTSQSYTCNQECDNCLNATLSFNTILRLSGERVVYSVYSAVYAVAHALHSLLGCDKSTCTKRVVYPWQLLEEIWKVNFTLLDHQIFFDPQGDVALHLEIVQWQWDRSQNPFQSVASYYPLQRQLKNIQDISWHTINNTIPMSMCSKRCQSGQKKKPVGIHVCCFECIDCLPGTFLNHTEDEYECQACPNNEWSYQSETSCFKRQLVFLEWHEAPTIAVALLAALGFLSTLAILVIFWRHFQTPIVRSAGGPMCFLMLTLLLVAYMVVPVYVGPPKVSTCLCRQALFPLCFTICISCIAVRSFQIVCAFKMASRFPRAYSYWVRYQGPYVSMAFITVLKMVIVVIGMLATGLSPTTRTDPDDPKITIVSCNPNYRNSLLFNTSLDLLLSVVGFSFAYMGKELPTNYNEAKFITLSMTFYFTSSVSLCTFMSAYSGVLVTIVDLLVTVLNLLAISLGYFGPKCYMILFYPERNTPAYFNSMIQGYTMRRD

calcium response [1]: did not | calcium response [2]: did not respond to NHDC
Structure (SMILES): COc1ccc(CCC(=O)c2c(O)cc(O[C@@H]3O[C@H](CO)[C@@H](O)[C@H](O)[C@H]3O[C@@H]3O[C@@H](C)[C@H](O)[C@@H](O)[C@H]3O)cc2O)cc1O [NHDC, neohesperidin dihydrochalcone]
